From ChEMBL document CHEMBL1201862, “PubChem BioAssay data set” (2004)
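Five compound concentrations were applied to cells in 96-well plates for 48 hours; endpoints were derived by simple linear interpolation of the resulting dose-response curve. GI50: concentration for 50% inhibition of growth.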 The source made the active and inactive calls. Rule as the data show it: active = GI50 up to about 1.1 µM and inactive = higher.

How the values were obtained:
Experiment in all cases: NCI-60 cell line screen, 48 h
[1] = system: HOP-18
[2] = system: KM-20L2
[3] = system: M19-MEL
[4] = system: XF498
[5] = system: LXFL 529
[6] = system: DMS-273
[7] = system: DMS-114
[8] = system: RXF 631
[9] = system: DLD-1

| Compound | GI50 [1] | GI50 [2] | GI50 [3] | GI50 [4] | GI50 [5] | GI50 [6] | GI50 [7] | GI50 [8] | GI50 [9] |
| --- | --- | --- | --- | --- | --- | --- | --- | --- | --- |
| O=C(O)CCC(=O)N1c2ccccc2CC1c1c[nH]c2ccccc12 (configuration not stated) | > 100 µM (inactive) | > 100 µM (inactive) | > 100 µM (inactive) | > 100 µM (inactive) | > 100 µM (inactive) | > 100 µM (inactive) | > 100 µM (inactive) |  |  |
| COC(=O)c1cc(CNCCc2c[nH]c3ccccc23)on1 |  | > 100 µM (inactive) | > 100 µM (inactive) | 23.1 µM (inactive) | > 100 µM (inactive) | > 100 µM (inactive) | > 100 µM (inactive) | > 100 µM (inactive) | > 100 µM (inactive) |
| CCN(CC)CCSc1nc2cccc([N+](=O)[O-])c2[nH]1 |  |  | > 100 µM (inactive) | > 100 µM (inactive) | > 100 µM (inactive) | > 100 µM (inactive) | > 100 µM (inactive) | > 100 µM (inactive) |  |
| C=C1CCCC(C)(C)[C@@H]1CC/C(C)=C/Cn1c2cccc(=O)c-2nc2ccccc21 | 7.1 µM (inactive) |  | 1.26 µM (inactive) | 2.29 µM (inactive) |  | 1.48 µM (inactive) | 1.09 µM (active) |  | 1.26 µM (inactive) |
| Nc1ncnc2c1ncn2COC/C=C/I | 14 µM (inactive) |  | > 100 µM (inactive) | > 100 µM (inactive) | > 100 µM (inactive) | > 100 µM (inactive) | > 100 µM (inactive) | > 100 µM (inactive) | > 100 µM (inactive) |
| COc1cc(CCc2ccc(OCCN(C)C)cc2)cc(OC)c1OC | > 100 µM (inactive) | 76.9 µM (inactive) | > 100 µM (inactive) | 38.5 µM (inactive) | 77.6 µM (inactive) | > 100 µM (inactive) | 47.8 µM (inactive) | 88.7 µM (inactive) | > 100 µM (inactive) |
| CC1=C(Oc2ccccc2)C(CCC(=O)O)c2c(O)cc(Cl)c(O)c21 (configuration not stated) |  | > 100 µM (inactive) | > 100 µM (inactive) | > 100 µM (inactive) |  | > 100 µM (inactive) | > 100 µM (inactive) | > 100 µM (inactive) | > 100 µM (inactive) |
| O=C1C(Cl)N(c2c(Cl)cccc2Cl)C1c1c[nH]c2ccccc12 (configuration not stated) |  | > 100 µM (inactive) | > 100 µM (inactive) | > 100 µM (inactive) | > 100 µM (inactive) |  |  |  | > 100 µM (inactive) |
| CNC(=O)/C(=C/c1ccc(OC)cc1)c1cc(OC)c(OC)c(OC)c1 | > 71.1 µM (inactive) | 1.28 µM (inactive) | 1.74 µM (inactive) | 4.95 µM (inactive) | 4.43 µM (inactive) | 0.516 µM (active) | 2.3 µM (inactive) | 7.45 µM (inactive) | 2.25 µM (inactive) |
| O=C(Cc1ccccc1)NN1C(=O)C(Cl)C1c1ccccc1 (configuration not stated) | > 100 µM (inactive) | > 100 µM (inactive) | > 100 µM (inactive) | 24.6 µM (inactive) | 20 µM (inactive) |  | 33.9 µM (inactive) |  | > 100 µM (inactive) |
| CCCCCCCCCCCC1CCCC(C)N1 (configuration not stated) | 87.9 µM (inactive) | 29 µM (inactive) | 56.2 µM (inactive) | 47.4 µM (inactive) |  | 65.2 µM (inactive) | 56.2 µM (inactive) |  | 24.5 µM (inactive) |
| Cn1c2c([N+](=O)[O-])[se]nc2c(=O)n1-c1ccc([N+](=O)[O-])cc1 | 2.82 µM (inactive) | 6.9 µM (inactive) |  | 2.26 µM (inactive) | 1.25 µM (inactive) | 2.5 µM (inactive) | 0.254 µM (active) | 1.5 µM (inactive) | 0.746 µM (active) |
| C[C@@]12CC[C@H]3[C@@H]4CCC(=O)N[C@@]4(C)CC[C@@H]3[C@@]1(C)CC[C@H](OC(=O)Cc1ccc(N(CCCl)CCCl)cc1)C2 | 18 µM (inactive) | 18.2 µM (inactive) | 17.5 µM (inactive) |  |  | 15.2 µM (inactive) | 15 µM (inactive) |  | 19.7 µM (inactive) |
| CCCCCCCCCCCCCCCCNCCCN(C)CCCN |  | 18.2 µM (inactive) | 19.9 µM (inactive) |  | 18.6 µM (inactive) | 17.8 µM (inactive) | 16.6 µM (inactive) |  | 16.8 µM (inactive) |
| CCCc1onc(CCC(=O)N(Cc2ccccc2)Cc2ccccc2)c1CC |  | > 100 µM (inactive) | > 100 µM (inactive) | > 100 µM (inactive) | > 100 µM (inactive) | > 100 µM (inactive) | > 100 µM (inactive) | > 100 µM (inactive) | > 100 µM (inactive) |
